The source made the active and inactive calls.
What was measured:
[1] = target: T1, Short transient receptor potential channel 4 (Mus musculus, UniProt Q9QUQ5); experiment: mouse TRPC4 channel activators, dose response, cell-based, HEK293 TRPC4/mu-opioid, Fluo-4 calcium (AID 434937); format: functional
T1 sequence (Q9QUQ5 whole entry): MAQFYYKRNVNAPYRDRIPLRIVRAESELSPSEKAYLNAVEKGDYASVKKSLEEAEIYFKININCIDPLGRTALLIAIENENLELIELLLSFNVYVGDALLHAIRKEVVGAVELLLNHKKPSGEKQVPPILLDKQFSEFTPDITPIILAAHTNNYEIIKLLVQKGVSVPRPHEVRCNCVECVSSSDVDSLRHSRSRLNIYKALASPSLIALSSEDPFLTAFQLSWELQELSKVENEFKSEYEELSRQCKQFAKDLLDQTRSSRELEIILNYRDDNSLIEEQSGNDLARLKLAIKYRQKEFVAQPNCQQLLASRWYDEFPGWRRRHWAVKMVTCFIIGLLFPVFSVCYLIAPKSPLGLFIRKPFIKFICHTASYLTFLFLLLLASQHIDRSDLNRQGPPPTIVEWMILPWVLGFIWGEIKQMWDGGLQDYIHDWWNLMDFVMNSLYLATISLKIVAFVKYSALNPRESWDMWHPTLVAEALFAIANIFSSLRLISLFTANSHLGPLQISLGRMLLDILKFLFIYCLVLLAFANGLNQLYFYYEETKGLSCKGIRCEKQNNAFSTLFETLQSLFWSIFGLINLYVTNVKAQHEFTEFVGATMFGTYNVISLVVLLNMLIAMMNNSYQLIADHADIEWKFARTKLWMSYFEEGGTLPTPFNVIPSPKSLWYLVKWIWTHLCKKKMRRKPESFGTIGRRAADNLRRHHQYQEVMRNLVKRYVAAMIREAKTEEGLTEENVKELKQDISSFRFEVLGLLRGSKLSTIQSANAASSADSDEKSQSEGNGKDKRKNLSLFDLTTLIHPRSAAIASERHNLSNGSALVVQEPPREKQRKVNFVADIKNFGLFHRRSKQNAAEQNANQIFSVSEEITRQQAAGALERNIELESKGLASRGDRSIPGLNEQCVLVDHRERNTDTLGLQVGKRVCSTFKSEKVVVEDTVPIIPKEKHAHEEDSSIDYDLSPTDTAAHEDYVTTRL

[2] = Vero E6 cell cytotoxicity, dose response, cytotoxicity control for non-replicating M. tuberculosis project, secondary assay (AID 492998); format: functional, VeroE6; conditions: Vero C1008
[3] = HepG2 cell cytotoxicity, dose response, cytotoxicity control for non-replicating M. tuberculosis project (AID 489018); format: functional; conditions: Mycobacterium tuberculosis
cells = format: functional
[4] = THP-1 cell cytotoxicity, dose response, cytotoxicity control for non-replicating M. tuberculosis project (AID 489025); format: functional
[5] = target: Voltage-dependent T-type calcium channel subunit alpha-1H (Homo sapiens, UniProt O95180); format: functional;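 note: channel activity triggered by adding a high calcium stimulation buffer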
[6] = target: Polyadenylate-binding protein 1 (Homo sapiens, UniProt P11940); experiment: PABP poly(A) RNA binding inhibitors, primary screen, biochemical, fluorescence polarization, uHTS (AID 2014)
[7] = target: Eukaryotic translation initiation factor 4H (Homo sapiens, UniProt Q15056); experiment: human eIF4H binding inhibitors, primary screen, translation initiation inhibitor project, biochemical, uHTS, fluorescence polarization (AID 2012)
[8] = target: DNA dC->dU-editing enzyme APOBEC-3A (Homo sapiens, UniProt P31941); experiment: Dose Response confirmation of small molecule APOBEC3A DNA Deaminase Inhibitors via a fluorescence-based single-stranded DNA deaminase assay. [Related pubchem assays (depositor defined):AID493011, AID493024]; format: functional
[9] = target: DNA dC->dU-editing enzyme APOBEC-3G (Homo sapiens, UniProt Q9HC16); format: functional;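 note: Dose-response counterscreen measuring inhibition of APOBEC3G DNA deaminase activity, run while confirming APOBEC3A inhibitors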
HeLa = experiment: HeLa cell cytotoxicity, dose response, cytotoxicity control for MITF activator project, CellTiter-Glo luminescence, cherry-pick samples (AID 540259); format: functional, cell-based; conditions: Homo sapiens
[10] = target: Beta-2 adrenergic receptor (Homo sapiens, UniProt P07550); experiment: beta2AR agonists driving receptor internalization, dose response, cell-based, FAP fluorogen, flow cytometry, cherry pick 1 (AID 588763); format: functional
Hexokinase = target: T2, Hexokinase (Trypanosoma brucei, UniProt Q38C41); experiment: Confirmation assay for inhibitors of Trypanosoma brucei hexokinase 1-Analogue-first series. [Related pubchem assays (depositor defined):AID1430, AID1632, AID2516, AID2560, AID2579, AID2600, AID449725, AID492951]; format: functional
T2 sequence (Q38C41 whole entry): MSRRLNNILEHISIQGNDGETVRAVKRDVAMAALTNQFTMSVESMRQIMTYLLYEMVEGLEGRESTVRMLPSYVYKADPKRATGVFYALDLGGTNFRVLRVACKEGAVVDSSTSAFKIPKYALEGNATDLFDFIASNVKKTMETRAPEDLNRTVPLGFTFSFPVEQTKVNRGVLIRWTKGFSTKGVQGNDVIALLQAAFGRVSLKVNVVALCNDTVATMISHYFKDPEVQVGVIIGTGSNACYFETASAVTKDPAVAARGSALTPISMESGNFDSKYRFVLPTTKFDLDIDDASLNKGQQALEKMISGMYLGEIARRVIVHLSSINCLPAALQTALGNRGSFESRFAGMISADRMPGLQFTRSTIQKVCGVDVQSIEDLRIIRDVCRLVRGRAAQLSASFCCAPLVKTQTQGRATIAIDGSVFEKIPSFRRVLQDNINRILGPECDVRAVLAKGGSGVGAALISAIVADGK

[11] = Luminescence Cell-Based Dose Retest to Confirm Inhibitors of Cancer Stem Cells. [Related pubchem assays (depositor defined):AID2717, AID2721]; format: functional; conditions: Homo sapiens

Sequence of Voltage-dependent T-type calcium channel subunit alpha-1H (O95180 whole entry): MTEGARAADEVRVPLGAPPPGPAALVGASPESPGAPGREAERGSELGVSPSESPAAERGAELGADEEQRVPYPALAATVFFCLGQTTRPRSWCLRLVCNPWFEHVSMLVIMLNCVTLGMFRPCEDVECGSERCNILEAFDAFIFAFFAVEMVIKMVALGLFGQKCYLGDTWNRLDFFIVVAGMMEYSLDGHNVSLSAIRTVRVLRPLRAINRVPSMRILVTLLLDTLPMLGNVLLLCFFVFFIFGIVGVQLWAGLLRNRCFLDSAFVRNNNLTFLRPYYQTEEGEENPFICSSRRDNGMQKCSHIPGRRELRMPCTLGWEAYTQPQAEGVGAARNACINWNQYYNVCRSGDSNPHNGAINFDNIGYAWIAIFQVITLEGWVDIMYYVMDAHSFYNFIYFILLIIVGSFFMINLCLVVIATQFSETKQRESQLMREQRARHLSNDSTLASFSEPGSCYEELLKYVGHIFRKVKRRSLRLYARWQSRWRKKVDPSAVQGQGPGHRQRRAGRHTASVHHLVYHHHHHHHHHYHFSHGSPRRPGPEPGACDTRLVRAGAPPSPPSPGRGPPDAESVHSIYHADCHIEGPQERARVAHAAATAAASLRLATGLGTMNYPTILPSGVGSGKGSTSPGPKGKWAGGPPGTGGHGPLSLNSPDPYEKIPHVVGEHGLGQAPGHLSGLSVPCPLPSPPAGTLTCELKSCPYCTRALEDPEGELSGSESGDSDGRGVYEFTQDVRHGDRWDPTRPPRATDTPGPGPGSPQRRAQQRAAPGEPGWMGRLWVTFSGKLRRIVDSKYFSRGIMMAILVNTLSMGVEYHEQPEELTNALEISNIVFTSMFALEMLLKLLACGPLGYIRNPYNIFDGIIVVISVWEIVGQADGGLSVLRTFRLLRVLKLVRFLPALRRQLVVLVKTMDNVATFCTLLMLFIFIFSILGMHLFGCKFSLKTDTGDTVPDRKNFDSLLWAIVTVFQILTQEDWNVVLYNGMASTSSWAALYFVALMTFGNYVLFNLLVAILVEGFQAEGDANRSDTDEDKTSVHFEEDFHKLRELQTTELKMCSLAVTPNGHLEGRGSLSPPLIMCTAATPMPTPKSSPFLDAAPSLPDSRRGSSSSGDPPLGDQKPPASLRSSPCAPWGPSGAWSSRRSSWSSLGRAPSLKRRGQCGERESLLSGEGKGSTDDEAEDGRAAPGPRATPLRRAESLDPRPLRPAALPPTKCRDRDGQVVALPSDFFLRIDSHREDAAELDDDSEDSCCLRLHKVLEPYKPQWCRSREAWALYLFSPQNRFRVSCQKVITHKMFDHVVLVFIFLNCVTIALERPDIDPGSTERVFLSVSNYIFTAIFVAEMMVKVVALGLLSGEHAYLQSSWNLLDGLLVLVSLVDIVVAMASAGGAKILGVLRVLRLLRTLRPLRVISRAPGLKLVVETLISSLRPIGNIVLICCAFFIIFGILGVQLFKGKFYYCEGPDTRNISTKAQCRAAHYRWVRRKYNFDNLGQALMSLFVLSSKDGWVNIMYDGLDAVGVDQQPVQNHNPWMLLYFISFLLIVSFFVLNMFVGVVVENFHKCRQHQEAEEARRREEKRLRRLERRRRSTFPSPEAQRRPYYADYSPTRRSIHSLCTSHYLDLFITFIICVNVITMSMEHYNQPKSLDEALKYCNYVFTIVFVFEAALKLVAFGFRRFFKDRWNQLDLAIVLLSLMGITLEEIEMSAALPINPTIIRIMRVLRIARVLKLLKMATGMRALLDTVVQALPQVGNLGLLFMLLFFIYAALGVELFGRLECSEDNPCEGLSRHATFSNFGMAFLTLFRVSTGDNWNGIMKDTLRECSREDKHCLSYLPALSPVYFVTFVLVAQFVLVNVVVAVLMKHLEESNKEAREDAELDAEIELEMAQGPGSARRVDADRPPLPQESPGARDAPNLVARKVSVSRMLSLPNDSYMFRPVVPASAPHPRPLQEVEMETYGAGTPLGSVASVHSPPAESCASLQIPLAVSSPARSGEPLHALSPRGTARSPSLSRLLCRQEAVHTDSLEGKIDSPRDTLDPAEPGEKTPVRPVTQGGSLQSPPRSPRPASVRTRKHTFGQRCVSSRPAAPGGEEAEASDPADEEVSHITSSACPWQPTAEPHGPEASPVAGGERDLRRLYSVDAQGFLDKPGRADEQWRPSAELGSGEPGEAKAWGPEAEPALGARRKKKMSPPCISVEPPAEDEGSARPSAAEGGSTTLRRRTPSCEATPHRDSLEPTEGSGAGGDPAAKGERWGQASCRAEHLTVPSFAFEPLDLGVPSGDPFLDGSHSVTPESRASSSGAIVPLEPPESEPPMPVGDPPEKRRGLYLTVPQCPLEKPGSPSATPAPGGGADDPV
Sequence of Polyadenylate-binding protein 1 (P11940 whole entry): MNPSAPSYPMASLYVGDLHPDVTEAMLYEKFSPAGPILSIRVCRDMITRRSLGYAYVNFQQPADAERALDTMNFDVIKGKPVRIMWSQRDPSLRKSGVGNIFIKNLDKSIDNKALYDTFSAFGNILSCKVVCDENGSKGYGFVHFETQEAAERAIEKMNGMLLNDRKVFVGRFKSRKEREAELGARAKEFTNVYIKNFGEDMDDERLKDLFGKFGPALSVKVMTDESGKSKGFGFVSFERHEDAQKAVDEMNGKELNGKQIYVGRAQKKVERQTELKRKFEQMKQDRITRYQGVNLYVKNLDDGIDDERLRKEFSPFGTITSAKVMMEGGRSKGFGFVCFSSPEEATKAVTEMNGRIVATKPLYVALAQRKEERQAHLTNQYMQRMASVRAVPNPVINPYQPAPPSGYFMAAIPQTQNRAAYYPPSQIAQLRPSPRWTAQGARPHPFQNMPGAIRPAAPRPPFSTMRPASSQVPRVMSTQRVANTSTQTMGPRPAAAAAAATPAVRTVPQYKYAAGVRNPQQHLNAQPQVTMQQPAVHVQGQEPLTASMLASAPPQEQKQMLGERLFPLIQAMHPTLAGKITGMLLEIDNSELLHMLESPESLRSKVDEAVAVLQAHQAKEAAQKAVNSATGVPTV
Sequence of DNA dC->dU-editing enzyme APOBEC-3A (P31941 whole entry): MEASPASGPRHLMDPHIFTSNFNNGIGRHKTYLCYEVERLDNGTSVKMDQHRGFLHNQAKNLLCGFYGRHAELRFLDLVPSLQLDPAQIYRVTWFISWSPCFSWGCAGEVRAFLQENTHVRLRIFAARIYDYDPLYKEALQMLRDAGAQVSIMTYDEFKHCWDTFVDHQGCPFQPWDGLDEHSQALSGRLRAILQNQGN
Sequence of DNA dC->dU-editing enzyme APOBEC-3G (Q9HC16 whole entry): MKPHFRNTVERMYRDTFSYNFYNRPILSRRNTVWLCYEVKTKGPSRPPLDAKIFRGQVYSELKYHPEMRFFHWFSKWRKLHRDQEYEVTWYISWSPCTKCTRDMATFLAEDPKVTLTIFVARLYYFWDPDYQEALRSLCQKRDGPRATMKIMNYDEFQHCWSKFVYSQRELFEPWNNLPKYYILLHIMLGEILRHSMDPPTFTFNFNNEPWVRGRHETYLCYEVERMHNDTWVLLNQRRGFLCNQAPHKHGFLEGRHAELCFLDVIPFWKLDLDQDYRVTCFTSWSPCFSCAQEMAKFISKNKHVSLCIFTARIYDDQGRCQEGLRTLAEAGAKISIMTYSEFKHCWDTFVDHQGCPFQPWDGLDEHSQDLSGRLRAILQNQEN
Sequence of Beta-2 adrenergic receptor (P07550 whole entry): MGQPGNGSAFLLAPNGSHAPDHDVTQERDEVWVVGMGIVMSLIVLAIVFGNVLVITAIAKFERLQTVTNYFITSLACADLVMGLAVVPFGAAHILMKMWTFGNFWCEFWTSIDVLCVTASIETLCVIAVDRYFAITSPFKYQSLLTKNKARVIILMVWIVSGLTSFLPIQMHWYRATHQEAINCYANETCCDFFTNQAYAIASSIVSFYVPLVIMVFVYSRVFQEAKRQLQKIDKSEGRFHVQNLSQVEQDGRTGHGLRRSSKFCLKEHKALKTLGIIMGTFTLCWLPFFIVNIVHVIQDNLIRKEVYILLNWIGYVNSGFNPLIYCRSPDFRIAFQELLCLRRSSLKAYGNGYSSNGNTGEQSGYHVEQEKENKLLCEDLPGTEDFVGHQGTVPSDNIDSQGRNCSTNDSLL

Q: With `CCn1c(=O)cc(OCC(=O)NCCCN2CC(C)CC(C)C2)c2ccccc21` (configuration not stated) as the compound, how does the EC50 [1] read?
A: 0.473 µM (active)

Q: What does the source list for `CN(C)c1c2ccccc2nc2c(F)c(F)c(F)c(F)c12`?
A: CC50 [2]: > 20 µM (active); CC50 [3]: > 20 µM (active); IC50 (cells): 17.7 µM (active); CC50 [4]: 22.9 µM (active)

Q: Which EC50 [5] does the source give for `O=C(NCc1ccc2c(c1)OCO2)c1ccc(CN2CCc3ccccc3C2)cc1` here?
A: 7.5 µM (active)

Q: Which IC50 [6] does the source give for `COc1cc(/C=C/c2cccc[n+]2C)ccc1OCC(=O)Nc1ccccc1C` here?
A: 3.83 µM (active)

Q: What about the IC50 [7] of the same compound?
A: > 100 µM (inactive)

Q: What about the IC50 [8] of the same compound?
A: 1.56 µM (active)

Q: What about the IC50 [9] of the same compound?
A: 1.29 µM (active)

Q: For `COc1ccccc1NC(=O)c1cc[n+](C)cc1`, which IC50 [6] is on record?
A: 5.63 µM (active)

Q: And the IC50 [7]?
A: 90.8 µM (active)

Q: And the IC50 [8]?
A: 2.48 µM (active)

Q: And the IC50 [9]?
A: 2.3 µM (active)

Q: What does the source list for `COc1ccc(/C=C2\C(=O)NCC(=O)N2C)cc1`?
A: IC50 [6]: 6.16 µM (active); IC50 [7]: > 100 µM (inactive); IC50 [8]: 2.81 µM (active); IC50 [9]: 6.99 µM (active)

Q: For `O=C(Nc1ccc2c(c1)CCC2)C1CCCN(c2ncccn2)C1` (configuration not stated), which AC50 (HeLa) is on record?
A: 104 µM (active)

Q: For `CCCNC(=O)Nc1nc2ccccc2s1`, which AC50 (HeLa) is on record?
A: 191 µM (active)

Q: For `Cc1ccc(CNC(=O)C[S+]([O-])Cc2nc(-c3ccccc3C)oc2C)cc1` (configuration not stated), which EC50 [5] is on record?
A: 6 µM (active)

Q: For `CC1CC(C)CN(CCCNC(=O)c2csc3c2CCCCC3)C1` (configuration not stated), which EC50 [1] is on record?
A: 4.73 µM (active)

Q: Which EC50 [5] does the source give for `Cc1ccc(NC(=O)C[S+]([O-])Cc2nc(-c3ccc(C)cc3)oc2C)cc1` (configuration not stated) here?
A: 2.45 µM (active)

Q: For `Cc1ccc(Sc2cc(N3CCOCC3)nc(-c3ccccc3)n2)cc1`, which EC50 [10] is on record?
A: 4.82 µM (active)

Q: For `CC(CCc1ccccc1)NC(=O)CN1CCN(Cc2ccc(Cl)cc2)C1=O` (configuration not stated), which EC50 [5] is on record?
A: 4.5 µM (active)

Q: With `COc1ccc(C(C)=O)cc1COc1ccc(Cl)cc1Cl` as the compound, how does the EC50 [10] read?
A: 2.67 µM (active)

Q: For `Cc1ccc(C(=O)Nc2cc(Cl)ccc2C(=O)O)c(C)c1`, which IC50 (Hexokinase) is on record?
A: > 25 µM (inactive)

Q: Which IC50 (Hexokinase) does the source give for `N#Cc1ccccc1NC(=O)Cn1sc2ccccc2c1=O` here?
A: 7.21 µM (active)

Q: Which AC50 (HeLa) does the source give for `COc1cc(OC)cc(-c2cc3cc(F)ccc3cn2)c1` here?
A: 50.6 µM (active)

Q: For `O=C(Cn1sc2ccccc2c1=O)N1CCOCC1`, which IC50 (Hexokinase) is on record?
A: > 25 µM (inactive)

Q: For `Brc1ccc(/C=N/Nc2ccccc2)cc1`, which AC50 (HeLa) is on record?
A: 65.5 µM (active)

Q: What about the AC50 [11] of the same compound?
A: 3.98 µM (active)

— ChEMBL document CHEMBL1201862, “PubChem BioAssay data set” (2004)
